Reference: patent US9468670B2, “Melatonin-based treatment and diagnosis of bile duct disease” (Texas A&M University System, priority 2011, dated 2016)

Key:
[1] = Liver weight, body weight and liver to body weight ratio in normal and BDL rats; assay type: in vivo, rat; conditions: tap water containing melatonin (20 mg/L) for 1 week
Description: Male 344 Fischer rats (150-175 g) were purchased from Charles River (Wilmington, Mass.) and kept in a temperature-controlled environment (22° C.) with 12:12 hr light/dark cycles. Animals were fed ad libitum and had free access to food and drinking water. […] Before each surgical procedure, animals were anesthetized with sodium pentobarbital (50 mg/kg BW, IP). All animal experiments were performed in accordance with a protocol approved by the Scott and White and Texas A&M Health Science Center Institutional Animal Care and Use Committee and conform to the Guide for the Care and Use of Laboratory Animals published by the US National Institutes of Health (NIH Publication No. 85-23, revised 1996). In all animals, wet liver weight, body weight, wet liver weight to body weight ratio, and an index of liver cell growth including cholangiocytes were measured ([…] et al., 1988).

large cholangiocytes = experiment: Secretin-stimulated cAMP levels (RIA) in purified large cholangiocytes from treated BDL rats; assay type: in vivo, rat; conditions: cholangiocytes from BDL rats treated with melatonin for 1 week; secretin 100 nM, 5 minutes
Description: The effect of secretin on cAMP levels was evaluated in purified large cholangiocytes and bile and bicarbonate secretion was evaluated in bile fistula rats, two functional indices of cholangiocyte hyperplasia (Alpini et al., 1998; Alpini et al., 1988; LeSage et al., 1999). Following purification, large cholangiocytes (1×10^5 cells) were incubated for 1 hour at 37° C. (Ishii et al., 1989) before stimulation with 0.2% bovine serum albumin (BSA) or secretin (100 nM) for 5 minutes at room temperature (Kato et al., 1992; LeSage et al., 1999; LeSage et al., 2004) before evaluation of cAMP levels by RIA (Alpini et al., 1998; Kato et al., 1992; LeSage et al., 1999; LeSage et al., 2004). For the studies of biliary physiology, after anesthesia, rats were surgically prepared for bile collection as described by us (Alpini et al., 1988). When steady-state bile flow was reached (60-70 minutes from the intravenous infusion of Krebs-Ringer-Henseleit solution, KRH), the animals were infused with secretin (100 nM) (LeSage et al., 1999; LeSage et al., 2004) for 30 minutes followed by IV infusion of KRH for 30 minutes (LeSage et al., 1999; LeSage et al., 2004). Bicarbonate concentration in bile was determined by an ABL™ 520 Blood Gas System (Radiometer Medical A/S, Copenhagen, Denmark).

[2] = tested on: PER1, BMAL1, CRY1, CLOCK, MT1 and MT2; experiment: FACS analysis of clock proteins and MT1/MT2 in large mouse cholangiocyte lines; assay type: cell-based; conditions: in vitro melatonin vs. basal value
Description: (i) in paraffin-embedded liver sections ([…]) from normal and BDL control rats by immunohistochemistry ([…] al., 2009); and (ii) in total RNA (1 μg, by real-time PCR) (Francis et al., 2008) from purified cholangiocytes. […] FACS analysis was performed as described (Onori et al., 2010) using a C6 flow cytometer and analyzed by CFlow Software (Accuri Cytometers Inc. Ann Arbor, Mich.). At least 10,000 events in the light-scatter (SSC/FSC) were acquired. The expression of the selected protein was identified and gated on FL1-A/Count plots. The relative quantity of the selected protein (mean selected protein fluorescence) was expressed as mean FL1-A (samples)/mean FL-1A (secondary antibodies only).

CCA lines = experiment: Proliferation by MTS assay in CCA lines and H69; assay type: cell-based, human; conditions: melatonin 10-7 to 10-11 M, 24-72 hours
Description: Methods: Melatonin immunoreactivity, the expression of melatonin biosynthesis enzymes and receptors were assessed by immunohistochemistry in tissue arrays from normal and CCA patients, and by qPCR and immunoblots in intra-hepatic and extra-hepatic CCA cell lines, and a normal cholangiocyte line (H69). Proliferation was evaluated in vitro by MTS assay in CCA lines and H69 after treatment with melatonin (10-7 to 10-11 M, 24-72 hours). In parallel, the expression of CLOCK after melatonin treatment (10-11 M for 48 hours) was assessed in CCA lines and normal cholangiocytes by qPCR.

[3] = H&E evaluation of organ damage in melatonin-treated rats; assay type: in vivo, rat; conditions: normal and BDL rats treated with melatonin
Description: The following was also evaluated in paraffin-embedded liver sections ([…]): (i) lobular necrosis; (ii) the intrahepatic bile duct mass (IBDM) of large ([…]) (Alpini et al., 1997; Glaser et al., 2009) cholangiocytes, the only biliary cell types proliferating following BDL (Alpini et al., 1998; Glaser et al., 2009) and (iii) the percentage of cholangiocyte apoptosis by semiquantitative terminal deoxynucleotidyltransferase biotin-dUTP nick-end labeling (TUNEL) kit (Apoptag; Chemicon International, Inc.) (Glaser et al., 2010). Lobular necrosis was measured in liver sections stained for hematoxylin and eosin (Glaser et al., 2010). Lobular necrosis was scored as follows: −=0 foci; +/−=<2 foci; +=2-4 foci; and ++=>4 foci (Glaser et al., 2010). The IBDM was measured as area occupied by CK-19 positive-bile duct/total area×100 (Glaser et al., 2010). It was also evaluated by H&E of sections if melatonin administration induces the damage of kidney, heart, stomach, spleen and small and large intestine of normal and BDL rats. The sections from the selected were evaluated in a blinded-fashion by two board-certified pathologists by a BX-51 light microscope (Olympus, Tokyo, Japan) equipped with a camera.

Compound: COc1ccc2[nH]cc(CCNC(C)=O)c2c1 [melatonin]
- Body weight ([1]; BDL rats): 150.1 ± 7.9 gm
- Liver to body weight ratio ([1]; BDL rats): 4.5 ± 0.1
- Liver weight ([1]; BDL rats): 6.7 ± 0.1 gm
- Body weight ([1]; normal rats): 206.6 ± 3.9 gm
- Effect of secretin on cAMP levels of large cholangiocytes (large cholangiocytes): did not enhance
- Expression of MT1 and MT2 (FACS) [2]: decreased
- Expression of PER1, BMAL1, CRY1 and CLOCK (FACS) [2]: decreased
- Decrease in CCA growth compared to normal cholangiocytes (CCA lines): 65%
- Morphological damage of kidney, heart, stomach, spleen and small and large intestine [3]: No morphological damage
